Measured values as given in patent publication US7956069B2, “Compounds” (AstraZeneca AB, priority 2006, dated 2011).

Biological target: T1, hM1 (human Muscarinic receptor subtype 1) (Homo sapiens, UniProt P11229)
T1 construct: expressed in transfected cells; host or cells: CHO cells (Chinese hamster ovary cells, ATCC)
T1 sequence (P11229 1-460): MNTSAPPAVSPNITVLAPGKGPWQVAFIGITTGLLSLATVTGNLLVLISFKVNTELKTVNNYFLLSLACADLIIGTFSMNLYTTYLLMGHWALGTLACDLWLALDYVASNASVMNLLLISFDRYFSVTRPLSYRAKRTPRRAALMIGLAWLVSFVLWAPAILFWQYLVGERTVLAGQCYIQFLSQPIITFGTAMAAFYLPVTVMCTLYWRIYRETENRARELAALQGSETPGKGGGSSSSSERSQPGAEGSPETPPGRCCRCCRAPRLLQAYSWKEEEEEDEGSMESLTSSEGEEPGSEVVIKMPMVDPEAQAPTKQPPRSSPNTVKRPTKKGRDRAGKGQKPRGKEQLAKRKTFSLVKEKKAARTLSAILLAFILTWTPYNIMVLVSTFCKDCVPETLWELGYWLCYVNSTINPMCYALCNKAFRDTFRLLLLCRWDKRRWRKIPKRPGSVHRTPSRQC
Experiment: Human M1 calcium mobilization FLIPR assay
Type: cell-based
Details: CHO cells expressing hM1, Ca2+ release
Description: Biological Evaluation Human M1, Rat M1, Human M3 and Human M5 Calcium Mobilization FLIPR™ Assay
The compound activity in the present invention (EC50 or IC50) was measured using a 384 plate-based imaging assay that monitors drug induced intracellular Ca^2+ release in whole cells. Activation of hM1 (human Muscarinic receptor subtype 1, gene bank access NM_000738), rM1 (rat Muscarinic receptor subtype 1, gene bank access NM_080773), hM3 (human Muscarinic receptor subtype 3, gene bank access NM_000740NM_000740) and hM5 (human Muscarinic receptor subtype 5, gene bank access NM_0121258), receptors expressed in CHO cells (Chinese hamster ovary cells, ATCC) was quantified in a Molecular Devices FLIPR II™ instrument as an increase in fluorescent signal. Inhibition of hM3 and hM5 by compounds was determined by the decrease in fluorescent signal in response to 20 nM carbachol activation.
CHO cells were plated in 384-black polylysine coated plate (Costar) at 8000 cells/well/50 μl for 24 hours or 4000 cells/well for 48 hours in a humidified incubator (5% CO2 and 37° C.) in DMEM/F12 medium without selection agent. Prior to the experiment the cell culture medium was removed from the plates by inversion. A loading solution of 30 μl of Hank's balanced salt solution, 10 mM Hepes and 2.5 mM Probenicid at Ph 7.4 (Cat no. 311-520-VL, Wisent) with 2 μM calcium indicator dye (FLUO-3AM, Molecular Probes F14202) was added to each well. Plates were incubated at 37° C. for 60 minutes prior to start the experiment. The incubation was terminated by washing the cells four times in assay buffer, leaving a residual 25 μl buffer per well. Cell plates were then transferred to the FLIPR, ready for compound additions.
The day of experiment, carbachol and compounds were diluted in three-fold concentration range (10 points serial dilution) for addition by FLIPR instrument. For all calcium assays, a baseline reading was taken for 30 seconds followed by the addition of 12.5 μl (25 μl for hM1 and rM1) of compounds, resulting in a total well volume of 37.5 μl (50 μl for hM1 and rM1). Data were collected every 1.6 seconds for 300 seconds. For hM3 and hM5 an additional 12.5 μl of carbachol (20 nM final) was added at 300 seconds. After this addition of carbachol (producing a final volume of 50 μl), the FLIPR continued to collect data every 2 seconds for 240 seconds. The fluorescence emission was read using filter 1 (emission 520-545 nm) by the FLIPR on board CCD camera.
Calcium mobilization output data were calculated as the maximal relative fluorescence unit (RFU) minus the minal value for both compound and agonist reading frame (except for hM1 and rM1 using only the maximal RFU). Data were analyzed using sigmoidal fits of a non-linear curve-fitting program (XLfit version 5.0.6 from ID Business Solutions Limited, Guildford, UK). All EC50 and IC50 values are reported as arithmetic means±standard error of mean of ‘n’ independent experiments.

Structure (SMILES)	EC50
O=C1CCCN1CCC(=O)N1CCC(N2CCC(N3C(=O)N[C@@H]4CCCC[C@H]43)CC2)CC1	0.0092 µM
CCOC(=O)N1CCC(N2CCC(N3C(=O)N[C@H]4CCCC[C@@H]43)CC2)CC1	0.0011 µM
O=C(C1CC1)N1CCC(N2CCC(N3C(=O)N[C@@H]4CCCC[C@H]43)CC2)CC1	0.046 µM
CC(C)OC(=O)N1CCC(N2CCC(N3C(=O)N[C@@H]4CCCC[C@@H]43)CC2)CC1	0.015 µM
CC(C)OC(=O)N1CCC(N2CCC(N3C(=O)N[C@H]4CCCC[C@@H]43)CC2)CC1	0.0046 µM
O=C(C1CCCC1)N1CCC(N2CCC(N3C(=O)N[C@H]4CCCC[C@@H]43)CC2)CC1	0.095 µM
CCOC(=O)N1CC[C@H](N2CCC(N3C(=O)N[C@H]4CCCC[C@@H]43)CC2)C1	0.005 µM
CC(C)OC(=O)N1CCC(N2CCC(N3C(=O)C[C@H]4CCCC[C@@H]43)CC2)CC1	0.014 µM
CN1C(=O)N(C2CCN(C3CCN(C(=O)C4CC4)CC3)CC2)[C@H]2CCCC[C@@H]21	0.094 µM
O=C1CCCN1CCC(=O)N1CCC(N2CCC(N3C(=O)N[C@H]4CCCC[C@@H]43)CC2)CC1	0.0068 µM
COc1ccccc1C(=O)N1CCC(N2CCC(N3C(=O)N[C@@H]4CCCC[C@H]43)CC2)CC1	0.2 µM
O=C(OCCF)N1CCC(N2CCC(N3C(=O)N[C@H]4CCCC[C@@H]43)CC2)CC1	0.0025 µM
